Results: PubChem BioAssay (NCI)
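Each compound was tested at five concentrations against cells in 96-well plates for 48 hours. TGI: total growth inhibition.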

Assays:
Test in all cases: NCI tumour cell line growth inhibition, 48 h
[1] = tested on: DLD-1 colon
[2] = tested on: P388 leukemia
[3] = tested on: P388/ADR leukemia
[4] = tested on: SN12K1 renal
[5] = tested on: XF 498 CNS
[6] = tested on: LXFL 529 NSCLC

Row | Structure (SMILES) | TGI [1] [µM] | TGI [2] [µM] | TGI [3] [µM] | TGI [4] [µM] | TGI [5] [µM] | TGI [6] [µM]
1 | O=NN1C(c2ccccc2)C2CCCC(C2=O)C1c1ccccc1 (centres undefined) | > 100 | > 64.1 | 45.9 | > 71.3 | 33.3 | –
2 | COc1ccc(NC(=S)NNC(=O)c2nsc3ccccc23)cc1 | – | – | – | – | – | > 100
3 | CCc1c2cc(OC)c(OC)cc2cc2c3cc(OC)c(OC)cc3cc[n+]12 (tested in a mixture with another compound) | > 100 | – | – | – | 33.6 | > 76.3
